Measured values taken from US20060089375A1, “Pyrazolo[3,4-b] pyridine compounds, and their use as phosphodiesterase inhibitors” (priority 2002, published 2006).

Biological target: T1, PDE4B (human recombinant) (Homo sapiens, UniProt Q07343)
T1 construct: made in house
Test: Inhibition of PDE4B activity: radioactive SPA or IMAP Fluorescence Polarisation (FP) assay
Type: biochemical
Settings: PDE4B inhibitory activity, one reading or average of ca. 2-6 readings, read-out: PDE4B pIC50 (± about 0.5) (converted)
Description: Human recombinant PDE4B, in particular the 2B splice variant thereof (HSPDE4B2B), is disclosed in WO 94/20079 and also M. M. McLaughlin et al., “A low Km, rolipram-sensitive, cAMP-specific phosphodiesterase from human brain: cloning and expression of cDNA, biochemical characterisation of recombinant protein, and tissue distribution of mRNA”, J. Biol. Chem., 1993, 268, 6470-6476. For example, in Example 1 of WO 94/20079, human recombinant PDE4B is described as being expressed in the PDE-deficient yeast Saccharomyces cerevisiae strain GL62, e.g. after induction by addition of 150 uM CuSO4, and 100,000×g supernatant fractions of yeast cell lysates are described for use in the harvesting of PDE4B enzyme.
The ability of compounds to inhibit catalytic activity at PDE4B or 4D (human recombinant), PDE3 (from bovine aorta), PDE5 (human recombinant) or PDE6 (from bovine retina) was determined by Scintillation Proximity Assay (SPA) in 96-well format. Test compounds (preferably as a solution in DMSO, e.g. 0.5 to 1 microlitre (ul) volume) were preincubated at ambient temperature (room temperature, e.g. 19-23° C.) in Wallac Isoplates (code 1450-514) with PDE enzyme in 50 mM Tris-HCl buffer pH 7.5, 8.3 mM MgCl2, 1.7 mM EGTA, 0.05% (w/v) bovine serum albumin for 10-30 minutes (usually 30 minutes). The enzyme concentration was adjusted so that no more than 20% hydrolysis of the substrate defined below occurred in control wells without compound, during the incubation. For the PDE3, PDE4B and PDE4D assays, [5′,8-^3H]Adenosine 3′,5′-cyclic phosphate (Amersham Pharmacia Biotech, code TRK.559; or Amersham Biosciences UK Ltd, Pollards Wood, Chalfont St Giles, Buckinghamshire HP8 4SP, UK) was added to give 0.05 uCi per well and ˜10 nM final concentration. For the PDE5 and PDE6 assays, [8-^3H]Guanosine 3′,5′-cyclic phosphate (Amersham Pharmacia Biotech, code TRK.392) was added to give 0.05 uCi per well and ˜36 nM final concentration. Plates, e.g. containing approx. 100 ul volume of assay mixture, were mixed on an orbital shaker for 5 minutes and incubated at ambient temperature for 1 hour. Phosphodiesterase SPA beads (Amersham Pharmacia Biotech, code RPNQ 0150) were added ([…] per well) to terminate the assay. Plates were sealed and shaken and allowed to stand at ambient temperature for 35 minutes to 1 hour (preferably 35 minutes) to allow the beads to settle. Bound radioactive product was measured using a WALLAC TRILUX 1450 Microbeta scintillation counter. For inhibition curves, 10 concentrations (1.5 nM-30 uM) of each compound were assayed. Curves were analysed using ActivityBase and XLfit (ID. Business Solutions Limited, 2 Ocean Court, Surrey Research Park, Guildford, Surrey GU2 7QB, United Kindgom) Results were expressed as pIC50 values.
The ability of compounds to inhibit catalytic activity at PDE4B (human recombinant) or PDE4D (human recombinant) was determined by IMAP Fluorescence Polarisation ([…]) assay (IMAP Explorer kit, available from Molecular Devices Corporation, Sunnydale, Calif., USA; Molecular Devices code: R^8062) in 384-well format. The IMAP FP assay is able to measure PDE activity in an homogenous, non-radioactive assay format. The FP assay uses the ability of immobilised trivalent metal cations, coated onto nanoparticles (tiny beads), to bind the phosphate group of Fl-AMP that is produced on the hydrolysis of fluorescein-labelled (Fl) cyclic adenosine mono-phosphate (Fl-cAMP) to the non-cyclic Fl-AMP form. […] Binding of Fl-AMP product to the beads (coated with the immobilised trivalent cations) slows the rotation of the bound Fl-AMP and leads to an increase in the fluorescence polarisation ratio of parallel to perpendicular light. Inhibition of the PDE reduces/inhibits this signal increase. […]

T1 sequence (Q07343 1-564 isoform Q07343-2): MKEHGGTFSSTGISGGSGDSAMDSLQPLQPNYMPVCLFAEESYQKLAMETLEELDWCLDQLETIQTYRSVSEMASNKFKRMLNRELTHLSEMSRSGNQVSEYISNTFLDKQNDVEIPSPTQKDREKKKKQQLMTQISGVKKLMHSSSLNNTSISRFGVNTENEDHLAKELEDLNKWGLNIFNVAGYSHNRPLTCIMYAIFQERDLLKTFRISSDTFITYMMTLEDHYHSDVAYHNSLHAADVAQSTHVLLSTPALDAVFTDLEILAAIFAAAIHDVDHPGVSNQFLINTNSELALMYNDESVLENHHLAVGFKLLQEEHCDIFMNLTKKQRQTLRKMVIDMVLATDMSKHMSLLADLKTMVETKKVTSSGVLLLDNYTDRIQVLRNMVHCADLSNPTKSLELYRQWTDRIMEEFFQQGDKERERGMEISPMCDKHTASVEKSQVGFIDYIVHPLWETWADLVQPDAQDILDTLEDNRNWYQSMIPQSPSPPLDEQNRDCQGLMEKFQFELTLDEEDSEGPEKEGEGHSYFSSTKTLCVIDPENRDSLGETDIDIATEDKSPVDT

IC50 | SMILES
39.8 nM | CCOC(=O)c1cnc2c(cnn2CC)c1NC1CCSC1 (racemic) [Example 11, Ethyl 1-ethyl-4-(tetrahydrothien-3-ylamino)-1H-pyrazolo[3,4-b]pyridine-5-carboxylate]
12.6 to 100 nM | CCOC(=O)c1cnc2c(cnn2CC)c1NC1CCCC1 [Example 1, Ethyl 4-(cyolopentylamino)-1-ethyl-1H-pyrazolo[3,4-b]pyridine-5-carboxylate]
10 nM | CCOC(=O)c1cnc2c(cnn2CC)c1NC1CCCCC1 [Example 2, Ethyl 4-(cyclohexylamino)-1-ethyl-1H-pyrazolo[3,4-b]pyridine-5-carboxylate]
15.8 nM | CCOC(=O)c1cnc2c(cnn2CC)c1NC1CCOCC1 [Example 3, Ethyl 1-ethyl-4-(tetrahydro-2H-pyran-4-ylamino)-1H-pyrazolo[3,4-b]pyridine-5-carboxylate]
251 nM | CCOC(=O)c1cnc2c(cnn2C)c1NC1CCCC1 [Example 6]
20 nM | CCn1ncc2c(NC3CCCCC3)c(C(=O)NCc3ccncc3)cnc21 [Example 32, 4-(Cyolohexylamino)-1-ethyl-N-(pyridin-4-ylmethyl)-1H-pyrazolo[3,4-b]pyridine-5-carboxamide]
12.6 to 100 nM | CCn1ncc2c(NC3CCOCC3)c(C(N)=O)cnc21 [Example 36, 1-Ethyl-4-(tetrahydro-2H-pyran-4-ylamino)-1H-pyrazolo[3,4-b]pyridine-5-carboxamide]
12.6 to 100 nM | CCn1ncc2c(NC3CCCC3)c(C(=O)NCc3ccccc3)cnc21 [Example 39, N-Benzyl-4-(cyclopentylamino)-1-ethyl-1H-pyrazolo[3,4-b]pyridine-5-carboxamide]
5.01 nM | CCn1ncc2c(NC3CCCCC3)c(C(=O)NCc3ccccc3)cnc21 [Example 40, N-Benzyl-4-(cyclohexylamino)-1-ethyl-1H-pyrazolo[3,4-b]pyridine-5-carboxamide]
12.6 to 100 nM | CCn1ncc2c(NC3CCN(C(C)=O)CC3)c(C(=O)NCc3ccccc3)cnc21 [Example 41, 4-[(1-Acetylpiperidin-4-yl)amino]-N-benzyl-1-ethyl-1H-pyrazolo[3,4-b]pyridine-5-carboxamide]
12.6 to 100 nM | CCC(CC)CNC(=O)c1cnc2c(cnn2CC)c1NC1CCCC1 [Example 42, 4-(Cyclopentylamino)-1-ethyl-N-(2-ethylbutyl)-1H-pyrazolo[3,4-b]pyridine-5-carboxamide]
12.6 to 100 nM | CCC(CC)CNC(=O)c1cnc2c(cnn2CC)c1NC1CCCCC1 [Example 43, 4-(Cyclohexylamino)-1-ethyl-N-(2-ethylbutyl)-1H-pyrazolo[3,4-b]pyridine-5-carboxamide]
12.6 to 100 nM | CCC(CC)CNC(=O)c1cnc2c(cnn2CC)c1NC1CCOCC1 [Example 44, 1-Ethyl-N-(2-ethylbutyl)-4-(tetrahydro-2H-pyran-4-ylamino)-1H-pyrazolo[3,4-b]pyridine-5-carboxamide]
12.6 to 100 nM | CCn1ncc2c(NC3CCCC3)c(C(=O)Nc3ccc(F)cc3)cnc21 [Example 47, 4-(Cyclopentylamino)-1-ethyl-N-(4-fluorophenyl)-1H-pyrazolo[3,4-b]pyridine-5-carboxamide]
12.6 to 100 nM | CCn1ncc2c(NC3CCCCC3)c(C(=O)Nc3ccc(F)cc3)cnc21 [Example 48, 4-(Cyclohexylamino)-1-ethyl-N-(4-fluorophenyl)-1H-pyrazolo[3,4-b]pyridine-5-carboxamide]
126 nM | Cn1ncc2c(NC3CCOCC3)c(C(=O)NCc3ccccc3)cnc21 [Example 63, N-Benzyl-1-methyl-4-(tetrahydro-2H-pyran-4-ylamino)-1H-pyrazolo[3,4-b]pyridine-5-carboxamide]
0.1 to 6.31 nM | CCn1ncc2c(NC3CCOCC3)c(C(=O)NCc3ccc(S(C)(=O)=O)cc3)cnc21 [Example 100, 1-Ethyl-N-[4-(methylsulfonyl)benzyl]-4-(tetrahydro-2H-pyran-4-ylamino)-1H-pyrazolo[3,4-b]pyridine-5-carboxamide]
12.6 to 100 nM | CCn1ncc2c(NC3CCOCC3)c(C(=O)NCc3nccs3)cnc21 [Example 109, 1-Ethyl-4-(tetrahydro-2H-pyran-4-ylamino)-N-(1,3-thiazol-2-ylmethyl)-1H-pyrazolo[3,4-b]pyridine-5-carboxamide]
0.1 to 6.31 nM | CCn1ncc2c(NC3CCOCC3)c(C(=O)NC3Cc4ccccc4C3)cnc21 [Example 165, N-(2,3-Dihydro-1H-inden-2-yl)-1-ethyl-4-(tetrahydro-2H-pyran-4-ylamino)-1H-pyrazolo[3,4-b]pyridine-5-carboxamide]
0.1 to 6.31 nM | CCn1ncc2c(NC3CCOCC3)c(C(=O)NCc3ccc(OC)c(OC)c3)cnc21 [Example 167, N-(3,4-Dimethoxybenzyl)-1-ethyl-4-(tetrahydro-2H-pyran-4-ylamino)-1H-pyrazolo[3,4-b)pyridine-5-carboxamide]
12.6 to 100 nM | CCn1ncc2c(NC3CCOCC3)c(C(=O)NCc3cnn(C)c3)cnc21 [Example 178, 1-Ethyl-N-[(1-methyl-1H-pyrazo1-4-yl)methyl]-4-(tetrahydro-2H-pyran-4-ylamino)-1H-pyrazolo[3,4-b]pyridine-5-carboxamide]
12.6 to 100 nM | CCCn1ncc2c(NC3CCOCC3)c(C(=O)NCc3ccc(S(C)(=O)=O)cc3)cnc21 [Example 187, N-[4-(Methylsulfonyl)benzyl]-1-n-propyl-4-(tetrahydro-2H-pyran-4-ylamino)-1H-pyrazolo[3,4-b]pyridine-5-carboxamide]
12.6 nM | CCn1ncc2c(NC3CCOCC3)c(C(=O)NCc3ccccc3)c(C)nc21 [Example 196, N-Benzyl-1-ethyl-6-methyl-4-(tetrahydro-2H-pyran-4-ylamino)-1H-pyrazolo[3,4-b]pyridine-5-carboxamide]
3.16 nM | CCn1ncc2c(NC3CCCC(O)C3)c(C(=O)NCc3ccccc3)cnc21 (stereo not drawn) [Example 198, N-Benzyl-1-ethyl-4-[(3-hydroxycyclohexyl)amino]-1H-pyrazolo[3,4-b]pyridine-5-carboxamide]
0.1 to 6.31 nM | CCn1ncc2c(NC3CCC(=O)CC3)c(C(=O)NCc3ccccc3)cnc21 [Example 201, N-Benzyl-1-ethyl-4-[(4-oxocyclohexyl)amino]-1H-pyrazolo[3,4-b]pyridine-5-carboxamide]
0.1 to 6.31 nM | CCn1ncc2c(NC3CCC(=O)CC3)c(C(=O)NCc3ccc(C)cc3C)cnc21 [Example 260, N-[(2,4-dimethylphenyl)methyl]-1-ethyl-4-[(4-oxocyclohexyl)amino]-1H-pyrazolo[3,4-b]pyridine-5-carboxamide]
0.1 to 6.31 nM | CCn1ncc2c(NC3CCC(=O)CC3)c(C(=O)NCc3ccc(C)c(C)c3)cnc21 [Example 261, N-[(3,4-Dimethylphenyl)methyl]-1-ethyl-4-[(4-oxocyclohexyl)amino]-1H-pyrazolo[3,4-b]pyridine-5-carboxamide]
0.1 to 6.31 nM | CCn1ncc2c(NC3CCC(=O)CC3)c(C(=O)NCc3ccc(OC)cc3)cnc21 [Example 263]
0.1 to 6.31 nM | CCn1ncc2c(NC3CCC(=O)CC3)c(C(=O)NCc3ccc(N(C)C)cc3)cnc21 [Example 265, N-{[4-(Dimethylamino)phenyl]methyl}-1-ethyl-4-[(4-oxocyclohexyl)amino]-1H-pyrazolo[3,4-b]pyridine-5-carboxamide]
0.1 to 6.31 nM | CCn1ncc2c(NC3CCC(=O)CC3)c(C(=O)NCc3ccc(OC(F)F)cc3)cnc21 [Example 266, N-({4-[(Difluoromethyl)oxy]phenyl}methyl)-1-ethyl-4-[(4-oxocyclohexyl)amino]-1H-pyrazolo[3,4-b]pyridine-5-carboxamide]
